In PubChem BioAssay AID608 (Sanford-Burnham Center for Chemical Genomics, 2007) one finds Kd data, which are given here for 104 compounds.

Where “and” joins values, the source holds several entries; their conditions need not be identical. Equal values may be shown once. Calls of active or inactive are those of the source. The rule behind the calls is not given here.

Chain of Peptidyl-prolyl cis-trans isomerase FKBP1A (Homo sapiens) (P62942 whole entry, looked up): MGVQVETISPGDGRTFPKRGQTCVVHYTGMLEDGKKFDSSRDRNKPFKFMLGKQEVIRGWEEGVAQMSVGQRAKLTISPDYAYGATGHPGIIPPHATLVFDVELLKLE

The experiment concerns the target Peptidyl-prolyl cis-trans isomerase FKBP1A (Homo sapiens) (UniProt P62942). As to the kind of experiment: FKBP12 binders, biophysical, NMR detection (AID 608). To be noted: NMR binding, purified FKBP12.
`NC(=O)Cn1nc2c3c(cccc3c1=O)-c1ccccc1-2`: the Kd is > 4 mM (inactive). The figure for `Cc1nc2ccccc2c(=O)n1NC(=O)Nc1ccccc1` is > 4 mM (inactive); for `CC(=O)Nc1cccc(N(C)S(C)(=O)=O)c1` it is > 4 mM (inactive). Under `c1ccc(C[N+]23CCN(CC2)c2ccccc23)cc1` stands > 4 mM (inactive). The figure for `C[C@]12CCC(=O)C=C1CCC1C2C(=O)C[C@@]2(C)C1CC[C@]2(O)C(=O)CO` (some centres undefined) is > 4 mM (inactive). Regarding `Cn1nc(C(C)(C)C)cc1N`, the Kd was > 4 mM (inactive). On to `Cc1nc2nc(Cc3ccccc3)[nH]n2c(=O)c1Cl`, for which the Kd was > 4 mM (inactive). The figure for `O=c1[nH]cc(NC(=S)N2CCOCC2)c(=O)[nH]1` is > 4 mM (inactive). `CN(C)C(=S)Nc1ccccc1N1CCOCC1`: the Kd is > 4 mM (inactive). The figure for `Cc1ccc(C(=O)Nc2nnc(-c3ccncc3)s2)o1` is > 4 mM (inactive); for `Cc1cc(C(=O)NCc2cccs2)c(C)o1` it is > 4 mM (inactive); for `CC(=O)N1CCN(S(=O)(=O)c2ccccc2)CC1` it is > 4 mM (inactive). As to `O=C(O)c1ccc(-c2cnco2)cc1`, the Kd is > 4 mM (inactive). Under `Cc1nc2ccccc2c(=O)n1/N=C/c1ccco1` stands > 4 mM (inactive). Turning to `O=C(Nc1c[nH]c(=O)[nH]c1=O)c1ccccc1F`, the Kd was > 4 mM (inactive). The figure for `COC(=O)c1sccc1S(=O)(=O)N1CCCC1` is > 4 mM (inactive); for `COc1cc2c(cc1OC)C(C)NCC2` (centres undefined) it is > 4 mM (inactive); for `COC(=O)CCSCC(=O)Nc1nccs1` it is > 4 mM (inactive). Under `COc1ccc(-c2ccc(SCC(N)=O)nn2)cc1` stands > 4 mM (inactive); under `O=C(O)c1csc(-c2ccccc2)n1`, > 4 mM (inactive). The figure for `OCc1cc2ccccc2o1` is > 4 mM (inactive); for `Cc1cc(N)n(C2CCOC(C)(C)C2)n1` (centres undefined) it is > 4 mM (inactive); for `CCOC(=O)CC1NCCNC1=O` (centres undefined) it is > 4 mM (inactive). For `Nc1nc(O)c(C2=c3cc(Cl)ccc3=NC2=O)s1`, the Kd is > 4 mM (inactive).

`CC(=O)c1cc(C)ccc1O`: the Kd is > 4 mM (inactive). Regarding `CCN1CCN(CCCNc2ncnc3nc[nH]c23)CC1`, the Kd was > 4 mM (inactive). The figure for `OC1CC2CCC1C2` (centres undefined) is > 4 mM (inactive); for `CC(C)=CCOc1c2occc2cc2ccc(=O)oc12` it is > 4 mM (inactive); for `Cn1c(CO)nc2ccccc21` it is > 4 mM (inactive). Take `O=C(O)/C=C/C=C/c1ccccc1`: the Kd is > 4 mM (inactive). The figure for `O=C(CSc1ccccc1)N1CCOCC1` is 0.0235 mM; for `O=C(NC(=S)NCCO)c1ccccc1` it is > 4 mM (inactive); for `CS(=O)(=O)c1ccc2nc(N)sc2c1` it is > 4 mM (inactive).

In the case of `CC(C)c1ccc(NC(=O)C(N)=O)cc1`, the Kd is > 4 mM (inactive). The figure for `CNC(C)[C@H](O)c1ccccc1` (some centres undefined) is > 4 mM (inactive); for `O=C(O)C1CC(=O)N(Cc2cccs2)C1` (centres undefined) it is > 4 mM (inactive); for `Cc1ccc(C(=O)N2CCC(C(N)=O)CC2)cc1C` it is > 4 mM (inactive). The figure for `C=C1C2CC[C@@]3(C)[C@H](c4ccoc4)OC(=O)C[C@]13O[C@H]1CC(=O)C(C)(C)[C@H](C(OC(C)=O)C(=O)OC)[C@@]21C` (some centres undefined) is > 4 mM (inactive); for `CC1(C)Oc2ccc3ccc(=O)oc3c2CC1O` (centres undefined) it is > 4 mM (inactive). Under `Cc1ccc2c(c1)CCCN2C(=O)c1ccncc1` stands > 4 mM (inactive); under `Cc1ccc(SCCN2C(=O)NC(C)(C)C2=O)cc1`, 0.27 mM.

Turning to `NS(=O)(=O)c1ccc(NC(=O)C(F)(F)F)cc1`, the Kd was > 4 mM (inactive). As to `Cc1ccc(CCNc2ccccc2)c[n+]1[O-]`, the Kd is > 4 mM (inactive). The figure for `Cc1ccc(SCC(=O)N2CCOCC2)cc1` is 0.022 mM and 0.012 mM. For `NC(=O)CC[C@H](N)C(=O)O`, the Kd is > 4 mM (inactive). Under `OC12CC3CC(CC(C3)C1)C2` stands > 4 mM (inactive); under `CC12CN(CC#N)CC(C)(CN(CC#N)C1)C2=O`, > 4 mM (inactive). Regarding `CC(C)=CC1C(CO)C1(C)C` (centres undefined), the Kd is > 4 mM (inactive). The figure for `C=CCCCCCCCCCCCC(O)CC(O)COC(C)=O` (centres undefined) (tested in a mixture with another compound) is > 4 mM (inactive); for `O=C(O)c1ccc(-n2cccn2)cc1` it is > 4 mM (inactive); for `O=C(O)CCS(=O)(=O)c1ccccc1` it is > 4 mM (inactive). `Oc1ccc(C(=S)N2CCCCC2)cc1Cl`: the Kd was > 4 mM (inactive). The figure for `Nc1ccc(-n2cccc2)cc1` is > 4 mM (inactive); for `Cc1onc(-c2ccc(F)cc2)c1C(=O)O` it is > 4 mM (inactive). The figure for `CNc1ccccc1C(=O)O` is > 4 mM (inactive); for `Nc1ccc2nsnc2c1` it is > 4 mM (inactive); for `COc1ccc(CN2CCNC(=O)C2CC(=O)O)cc1C` (centres undefined) it is > 4 mM (inactive).

In the case of `C=CCSc1[nH]c(=O)cc(C)c1C(N)=O`, the Kd was > 4 mM (inactive). For the compound `OCc1cccc2nonc12`, the Kd was > 4 mM (inactive). The figure for `O=C1c2ccccc2C(=O)N1OCc1ccccc1` is > 4 mM (inactive). Take `COC1C(O)C(O[C@H]2CC[C@]3(C=O)C4C(CC[C@]3(O)C2)[C@@]2(O)CC[C@H](C3=CC(=O)OC3)[C@@]2(C)C[C@H]4OC(C)=O)OC(C)C1OC(C)=O` (some centres undefined): the Kd is > 4 mM (inactive). The figure for `CS(=O)(=O)c1nncn1-c1ccccc1` is > 4 mM (inactive).

As to `Cn1c(=O)[nH]c2nc[nH]c2c1=O`, the Kd was > 4 mM (inactive).

With `N#CCCn1c(=O)oc2ccccc21`, the Kd was > 4 mM (inactive). The figure for `Cn1c(NCc2ccco2)nc2ccccc21` is > 4 mM (inactive); for `CC(C)=CC(=O)Nc1ccccc1C(N)=O` it is > 4 mM (inactive); for `CC(C)(C)c1ccc(SCC(N)=O)cc1` it is 0.455 mM. Under `O=[N+]([O-])c1ccc2c(c1)N([O-])C1(CCCCC1)[N+]2=O` stands > 4 mM (inactive); under `Nc1ccc(S(=O)(=O)N2CCOCC2)cc1`, > 4 mM (inactive); under `COCc1nc(-c2cc(Br)ccc2OC)no1`, > 4 mM (inactive). Under `CC(C)(C(N)=O)/[N+]([O-])=C\c1ccccc1` stands > 4 mM (inactive); under `COc1ccc2c3c([nH]c2c1)C(C)=NCC3`, > 4 mM (inactive). For `CC(C)=CC(=O)Nc1ccc(S(N)(=O)=O)cc1`, the Kd is > 4 mM (inactive). Under `Cc1c(C(=O)Nc2ccncc2)oc2c1C(=O)CC(C)(C)C2` stands > 4 mM (inactive). The figure for `Cc1cc2c(=O)n(C)c(SCC(N)=O)nc2s1` is > 4 mM (inactive); for `COc1ccc2cc1Oc1ccc(cc1)C[C@H]1c3c(cc4c(c3Oc3cc5c(cc3OC)CCN(C)[C@@H]5C2)OCO4)CCN1C` it is > 4 mM (inactive); for `C/C=C1\[C@H]2C=C(C)C[C@]1(N)c1ccc(=O)[nH]c1C2` it is > 4 mM (inactive). The figure for `Cc1noc(C)c1C(=O)Nc1ccccn1` is > 4 mM (inactive); for `Cc1onc(-c2ccccc2)c1C(=O)Nc1ccncc1` it is > 4 mM (inactive); for `O=C(NCc1cccc(Cl)c1)c1ccco1` it is > 4 mM (inactive). Turning to `Nc1[nH]c(=S)ncc1S(=O)(=O)c1ccccc1`, the Kd was > 4 mM (inactive). The figure for `O=C(Nc1ccon1)c1cccc(C(F)(F)F)c1` is > 4 mM (inactive); for `O=C(CSc1cccc2cccnc12)N1CCOCC1` it is “inactive”. Under `NC(=O)CSc1ccc2nnc(-c3ccccc3)n2n1` stands > 4 mM (inactive); under `NN1C(=O)/C(=C/c2ccc(O)c(O)c2)SC1=S`, > 4 mM (inactive). With `NC1=NC(=O)/C(=C\c2cccc(C(=O)O)c2)S1`, the Kd was > 4 mM (inactive). For the compound `CC(C)NC(=O)c1nc2ccccc2s1`, the Kd was > 4 mM (inactive). The figure for `O=C(NC(=S)NCc1cccnc1)c1ccco1` is > 4 mM (inactive); for `CS(=O)(=O)c1ccccc1C(=O)Nc1nccs1` it is > 4 mM (inactive). The figure for `Nc1nc(N)nc(N2C(=O)c3ccccc3C2=O)n1` is > 4 mM (inactive); for `Cc1ccc(C(=O)Nn2cnnc2)c(Cl)c1` it is > 4 mM (inactive); for `NCCCCNCCCN` it is > 4 mM (inactive). The figure for `CC[C@@]1(O)C[C@H](O[C@H]2C[C@H](N(C)C)[C@H](O)[C@H](C)O2)c2c(cc3c(c2O)C(=O)c2c(O)cccc2C3=O)[C@H]1C(=O)OC` is > 4 mM (inactive); for `O=C(O)c1cncc(-c2cccs2)c1` it is > 4 mM (inactive). On to `Cc1nc2ccccc2n1S(=O)(=O)N1CCOCC1`, for which the Kd entry was “inactive”.

Consider `O=C1OC(N2CCOCC2)c2ccccc21` (centres undefined), for which the Kd is > 4 mM (inactive). Under `Cc1cc(=O)[nH]c2ccccc12` stands > 4 mM (inactive); under `Cc1cc(C)n2nc(N)nc2n1`, > 4 mM (inactive).

Turning to `Cc1c(N=Cc2ccco2)c(=O)n(-c2ccccc2)n1C`, the Kd is > 4 mM (inactive). The figure for `Cc1cc(C)nc(/N=C(/N)N2CCC(C(N)=O)CC2)n1` is > 4 mM (inactive); for `COc1ccc(Cl)cc1-c1nc(-c2ccncc2)no1` it is > 4 mM (inactive); for `CN(C)Cc1nc2c([nH]1)c(=O)[nH]c(=O)n2C` it is > 4 mM (inactive). The figure for `CCOC(=O)C(C)c1n[nH]c(=O)c2ccccc12` (centres undefined) is > 4 mM (inactive); for `C=C[C@H]1CN2CC[C@H]1C[C@H]2[C@H](O)c1ccnc2ccccc12` it is > 4 mM (inactive).
